Measured values from ChEMBL document CHEMBL5137099, “Discovery of Novel cccDNA Reducers toward the Cure of Hepatitis B Virus Infection” (J Med Chem, 2022).
Converted amounts (≈) assume the structure as drawn.

Assays:
[1] = Dose normalized AUC (0 to 24 hrs) in C57BL/6 mouse at 30 mg/kg, po by LC-MS/MS analysis; format: ADME, organism-based; conditions: in vivo
[2] = Elimination half life in C57BL/6 mouse at 2 mg/kg, iv by LC-MS/MS analysis; format: ADME, organism-based; conditions: in vivo, read-out: beta t1/2 (converted)
[3] = Dose normalized AUC (0 to 24 hrs) in C57BL/6 mouse at 5 mg/kg, po by LC-MS/MS analysis; format: ADME, organism-based; conditions: in vivo
[4] = AUC (0 to infinity) in C57BL/6 mouse at 30 mg/kg, po by LC-MS/MS analysis; format: ADME, organism-based; set-up: time infinity, dose 30 mg/kg, route po; conditions: in vivo
[5] = AUC (0 to infinity) in C3H/J mouse at 5 mg/kg, po by LC-MS/MS analysis; format: ADME, organism-based; set-up: time infinity, dose 5 mg/kg, route po; conditions: in vivo
[6] = Metabolic stability in human microsomes assessed as clearance; format: ADME, Microsome; conditions: read-out: CLH
Hepatitis B virus [7] = assay: Antiviral activity against HBV infected in human primary hepatocyte cells assessed as reduction in HBV cccDNA production by measuring inhibition of HBsAg secretion measured after 48 hrs by ELISA; format: functional, organism-based
[8] = AUC (0 to infinity) in C57BL/6 mouse at 5 mg/kg, po by LC-MS/MS analysis; format: ADME, organism-based; set-up: time infinity, dose 5 mg/kg, route po; conditions: in vivo
[9] = Metabolic stability in mouse hepatocytes assessed as intrinsic clearance; format: ADME, cell-based, Hepatocyte; conditions: read-out: CLH
[10] = Oral bioavailability in C57BL/6 mouse at 5 mg/kg by LC-MS/MS analysis; format: ADME, organism-based; conditions: in vivo
[11] = AUC (0 to infinity) in C57BL/6 mouse at 2 mg/kg, iv by LC-MS/MS analysis; format: ADME, organism-based; set-up: time infinity, dose 2 mg/kg, route iv; conditions: in vivo
[12] = Elimination half life in C57BL/6 mouse at 5 mg/kg, po by LC-MS/MS analysis; format: ADME, organism-based; conditions: in vivo, read-out: beta t1/2 (converted)
[13] = Permeability of the compound by PAMPA analysis; format: ADME; conditions: read-out: permeability
[14] = Elimination half life in C3H/J mouse at 5 mg/kg, po by LC-MS/MS analysis; format: ADME, organism-based; conditions: in vivo, read-out: beta t1/2 (converted)
[15] = Cmax in C57BL/6 mouse at 30 mg/kg, po by LC-MS/MS analysis; format: ADME, organism-based; set-up: dose 30 mg/kg, route po; conditions: in vivo
[16] = Aqueous solubility of the compound; format: physicochemical; conditions: buffer
[17] = Clearance in C57BL/6 mouse at 2 mg/kg, iv by LC-MS/MS analysis; format: ADME, organism-based; conditions: in vivo
[18] = Volume of distribution at steady state in C57BL/6 mouse at 2 mg/kg, iv by LC-MS/MS analysis; format: ADME, organism-based; conditions: in vivo, read-out: Vdss
[19] = Tmax in C3H/J mouse plasma at 5 mg/kg, po by LC-MS/MS analysis; format: ADME, organism-based
[20] = Dose normalized AUC (0 to 24 hrs) in C57BL/6 mouse at 2 mg/kg, iv by LC-MS/MS analysis; format: ADME, organism-based; conditions: in vivo
[21] = Dose normalized AUC (0 to 24 hrs) in C3H/J mouse at 5 mg/kg, po by LC-MS/MS analysis; format: ADME, organism-based; conditions: in vivo
[22] = Dose normalized Cmax in C57BL/6 mouse at 5 mg/kg, po by LC-MS/MS analysis; format: ADME, organism-based; conditions: in vivo
[23] = Octanol-aqueous buffer distribution coefficient, log D of the compound at pH 7.4 by CAMDIS assay; format: physicochemical
[24] = Tmax in C57BL/6 mouse at 30 mg/kg, po by LC-MS/MS analysis; format: ADME, organism-based; conditions: in vivo
[25] = Cmax in C57BL/6 mouse at 5 mg/kg, po by LC-MS/MS analysis; format: ADME, organism-based; set-up: dose 5 mg/kg, route po; conditions: in vivo
[26] = Elimination half life in C57BL/6 mouse at 30 mg/kg, po by LC-MS/MS analysis; format: ADME, organism-based; conditions: in vivo, read-out: beta t1/2 (converted)
Hepatitis B virus [27] = assay: Antiviral activity against HBV infected in human HepDES19 cells assessed as reduction in HBV cccDNA production by measuring inhibition of HBeAg secretion incubated for 5 days by ELISA; format: functional, organism-based; conditions: HepDES19, 120 h
Hepatitis B virus [28] = assay: Antiviral activity against HBV infected in human HepG2 cells assessed as reduction in HBeAg secretion incubated for 5 days by counter screen assay; format: functional, organism-based; conditions: HepG2, 120 h
[29] = Cmax in C3H/J mouse plasma at 5 mg/kg, po by LC-MS/MS analysis; format: ADME, organism-based; set-up: dose 5 mg/kg, route po
[30] = Dose normalized Cmax in C3H/J mouse at 5 mg/kg, po by LC-MS/MS analysis; format: ADME, organism-based; conditions: in vivo
[31] = Tmax in C57BL/6 mouse at 5 mg/kg, po by LC-MS/MS analysis; format: ADME, organism-based; conditions: in vivo

O=C(O)C1CCN(c2ccc3c(=O)c4cccc(Cl)c4oc3c2)C1 (racemic)
AUC/dose [1]: 151 ng·h/mL | half-life [2]: 2.1 h | AUC/dose [3]: 500 ng·h/mL | AUC(0-inf) [4]: 31400 ng·h/mL | AUC(0-inf) [5]: 761 ng·h/mL | CLint scaled [6]: 6.2 mL/min/kg | IC50 (Hepatitis B virus [7]): 1.34 µM | AUC(0-inf) [8]: 2680 ng·h/mL | CLint scaled [9]: 32.3 mL/min/kg | bioavailability [10]: 56% | AUC(0-inf) [11]: 1900 ng·h/mL | half-life [12]: 10.2 h | Papp [13]: 2.27 ×10⁻⁶ cm/s | half-life [14]: 1.11 h | Cmax [15]: 17300 ng/mL | solubility [16]: < 435 µg/mL | clearance [17]: 17.6 mL/min/kg | Vd [18]: 0.65 L/kg | Tmax [19]: 0.5 h | AUC/dose [20]: 937 (ng·h/mL)/(mg/kg) | AUC/dose [21]: 171 (ng·h/mL)/(mg/kg) | Cmax/dose [22]: 331 ng/mL | logD [23]: 1.12 | Tmax [24]: 0.5 h | Cmax [25]: 1650 ng/mL | half-life [26]: 4.26 h | IC50 (Hepatitis B virus [27]): 1.74 µM | IC50 (Hepatitis B virus [28]): > 50 µM | Cmax [29]: 580 ng/mL | Cmax/dose [30]: 116 ng/mL | Tmax [31]: 0.5 h

O=C(O)C1CCN(c2ccc3c(=O)c4c(Cl)ccc(Cl)c4oc3c2)C1 (configuration not stated)
IC50 (Hepatitis B virus [7]): 1.16 µM | CLint scaled [9]: 34.8 mL/min/kg | Papp [13]: 1.72 ×10⁻⁶ cm/s | solubility [16]: 32 µg/mL (≈ 84.6 µM) | logD [23]: 1.44 | IC50 (Hepatitis B virus [27]): 2.36 µM | IC50 (Hepatitis B virus [28]): > 50 µM

O=C(O)C1CCN(c2ccc3c(=O)c4c(Cl)ccc(Cl)c4oc3c2)C1 (single isomer, unassigned)
IC50 (Hepatitis B virus [7]): 2.61 µM | CLint scaled [9]: 20.3 mL/min/kg | Papp [13]: 1.19 ×10⁻⁶ cm/s | solubility [16]: 29 µg/mL (≈ 76.7 µM) | logD [23]: 1.42 | IC50 (Hepatitis B virus [27]): 0.65 µM | IC50 (Hepatitis B virus [28]): > 50 µM

O=C(O)C1CCN(c2ccc3c(=O)c4c(C(F)(F)F)ccc(Cl)c4oc3c2)C1 (configuration not stated)
IC50 (Hepatitis B virus [7]): 1.21 µM | CLint scaled [9]: 11.9 mL/min/kg | Papp [13]: 1.18 ×10⁻⁶ cm/s | solubility [16]: 100 µg/mL (≈ 243 µM) | logD [23]: 1.42 | IC50 (Hepatitis B virus [27]): 0.25 µM | IC50 (Hepatitis B virus [28]): > 50 µM
